Assay results from patent US11352394B2, “Cyclic cell penetrating peptides comprising beta-hairpin motifs and methods of making and using thereof” (Ohio State Innovation Foundation, priority 2016, dated 2022).
Entries after “also recorded” stand apart in the source; their conditions may differ. Values belong to the compound of their own block, whether it stands above or below them. Square brackets hold non-standard residues; d marks the D form. Peptide text beside a SMILES is read from it. pY = N[C@@H](Cc1ccc(OP(=O)(O)O)cc1)C(=O)O; 2Nal = N[C@@H](Cc1ccc2ccccc2c1)C(=O)O

What was measured:
[1] = system: HO-1 protein (Keap1-Nrf2-ARE pathway), HEK293 cells; experiment: Anti-HO1 immunoblot of HO-1 protein level in HEK293 cells; type: cell-based, human
Protocol: FIG. 5 is an image from a Western blot analysis of HO-1 protein levels in HEK293 cells untreated or after treatment with SFN (10 μM) or a cyclic β-hairpin peptide (40 μM).
FIG. 8 is a western blot showing the effect of peptide BH15 on the protein level of HO-1, a protein downstream of the Keap1-Nrf2-ARE pathway. SFN, a small-molecule positive control; blank, no inhibitor.
The cellular activity of Keap1-Nrf2 inhibitors BH13-18 was assessed by examining their effects on the expression levels of HO-1 protein, by anti-HO1 immunoblot analysis. HO-1 is an antioxidant enzyme under the transcriptional control of Nrf2 binding to the ARE, and disruption of the Keap1-Nrf2 interaction is expected to increase the protein level of HO-1.
(§1) BH15 enters human cells, binds and inhibits the function of Keap1 (which promotes the ubiquitination and degradation of Nrf2), resulting in increased intracellular levels of Nrf2, a transcription factor. […] This in turn results in the increased levels of HO-1, a protein whose expression is controlled by Nrf2.

Grb2 SH2 domain = Grb2 SH2 domain (Homo sapiens, UniProt P62993); experiment: FP-based competition assay with FAM-labeled reporter ligand for Grb2 SH2 domain; type: binding
Protocol: FIG. 10(a) is the structure of a Grb2 SH2 ligand. […] This ligand was used as reporter ligand in FA/FP-based competition assays to determine the binding affinities of new Grb2 SH2 domain ligands.
(§2) The binding affinity of BH23 (unlabeled) for the Grb2 SH2 domain was then determined by examining its ability to compete with the FAM-labeled ligand for binding to the Grb2 SH2 domain by fluorescence polarization (FP). […] Next, BH23 was labeled with NF at the Asn side chain through a miniPEG-Lys linker and its cytosolic entry efficiency was quantitated by treating HeLa cells with 5 μM of the labeled peptide for 2 h before flow cytometry analysis. […] BH23 was also similarly labeled at the Asn side chain with FAM and its entry into HeLa cells was examined by live-cell confocal microscopy. […] Two control peptides (BH24 and BH25) were also prepared for cellular assays. BH24 and BH25 are structurally similar to BH23, except that BH24 contained a Tyr instead of the pY residue (FIG. 11), whereas in BH25 the two hydrophobic residues critical for cellular uptake (Nal-arg) were replaced with Ala-ala (FIG. 12).

[2] = system: Grb2/Ras signaling pathway, MDA-MB-468 breast cancer cells; experiment: Western blot of MEK and ERK1/2 phosphorylation in EGF-stimulated MDA-MB-468 cells; type: cell-based; details: peptide 2 h, EGF 50 ng/mL 10 min
Protocol: FIG. 13 provides western blots depicting the effect of peptides BH23, BH24, and BH25 on the Grb2/Ras signaling pathway. MDA-MB-468 cells were treated with the indicated concentrations of peptide BH23 (a) or control peptides BH24 and BH25 (b) for 2 h and stimulated with EGF (50 ng/mL) for 10 min. The cells were then lysed and the cell lysates were separated on SDS-PAGE and blotted with antibodies specific for phosphorylated and total kinases in the Ras signaling pathway. Glyceraldehyde 3-phosphate dehydrogenase (GAPDH) was used as the loading control. […] Inhibition of ERK1/2 phosphorylation was less dramatic, as expected from its further downstream position on the Grb2/Ras signaling pathway.
FIG. 14(a) is the structure of BH26. FIG. 14(b) provides western blots showing the effect of peptides BH23 and BH26 on the Grb2/Ras signaling pathway. MDA-MB-468 cells were treated with the indicated concentrations of BH23 or BH26 for 2 h and stimulated with EGF (50 ng/mL) for 10 min. The cells were then lysed and the cell lysates were separated on SDS-PAGE and blotted with antibodies specific for phosphorylated and total kinases in the Ras signaling pathway.
BH23 and BH24 were tested for their ability to inhibit the Grb2/Ras signaling pathways, by monitoring the phosphorylation of MEK and ERK1/2 kinases downstream of Ras.

HeLa cells = experiment: Cellular (cytosolic) uptake of NF-labeled peptides by flow cytometry (MFI); type: cell-based; details: HeLa cells, flow cytometry
Protocol: HeLa cells were treated with 5 μM peptide for 2 h, and their cell uptake efficiencies were determined by flow cytometry analysis. The mean fluorescence intensity (MFI) values derived from cytometry analyses reflect the amounts of peptides inside the cytosol and nucleus, whereas any NF-labeled peptide entrapped inside the acidic endosomes are invisible under the experimental conditions (Id.; Qian, Z et al. Chem. Commun. 2015, 51, 2162-2165).
as §2
BHT1 and BHT2 were labeled with naphthofluorescein (NF) and their cytosolic uptake into HeLa cells was determined by flow cytometry (Table 10).
Additional cell penetrating compounds were prepared and tested for cytosolic delivery. In these compounds there was no beta-hairpin turn creating moiety.

mammalian cells = details: Qian et al. 2013; cited from earlier work
Keap1-Nrf2 interaction = Keap1-Nrf2 interaction (Homo sapiens, UniProt Q14145); experiment: Fluorescence anisotropy-based competition assay, inhibition of Keap1-Nrf2 peptide interaction; type: binding; details: for IC50: FA competition with fluorescently labeled Nrf2 peptide and Keap1
Protocol: The percentage of inhibition was calculated from the fluorescence anisotropy decrease by using equation % Inhibition=(FAmax−FAobs)/(FAmax−FAmin)×100% and plotted against the inhibitor concentration.

[3] = system: Nrf2 protein level, HEK293 cells; experiment: Western blot of Nrf2 protein level in cytoplasm and nucleus of HEK293 cells; type: cell-based, human; details: varying doses
Text: The cellular activity of Keap1-Nrf2 Inhibitor BH15 was characterized, and it was observed that BH15 is biologically active in cell-based assays. Varying doses of BH15 were provided to HEK293 cells in culture. After a period of time, the cells were lysed, and cytosolic fractions were separated from nuclear fractions.
as §1

[4] = LaRochelle et al. 2015; cited from earlier work

Chain of Grb2 SH2 domain (P62993 60-152 limits assumed): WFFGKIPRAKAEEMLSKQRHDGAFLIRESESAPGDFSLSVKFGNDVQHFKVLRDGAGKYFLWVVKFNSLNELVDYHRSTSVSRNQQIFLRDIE
Chain of Keap1-Nrf2 interaction (Q14145 321-609 limits assumed): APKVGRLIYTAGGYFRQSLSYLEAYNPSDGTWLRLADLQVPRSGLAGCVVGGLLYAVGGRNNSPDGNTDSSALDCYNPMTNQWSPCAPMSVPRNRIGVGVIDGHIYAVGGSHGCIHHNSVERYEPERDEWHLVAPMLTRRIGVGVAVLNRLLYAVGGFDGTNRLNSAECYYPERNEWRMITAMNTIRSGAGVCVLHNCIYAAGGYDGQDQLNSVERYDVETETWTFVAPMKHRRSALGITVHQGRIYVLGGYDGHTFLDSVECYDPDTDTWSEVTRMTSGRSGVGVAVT

Compound: C[S+]([O-])CCCCN=C=S (stereo not drawn) [SFN, Sulforaphane, reference compound]
HO-1 level (positive control) ([1]; 10 μM): increased

IC50 (Grb2 SH2 domain; unlabeled peptide, FP-based competition with FAM-labeled ligand, read-out: IC50 Value, binding to Grb2 SH2 domain): > 10000 nM
Compound: CC(C)[C@@H]1NC(=O)[C@H](Cc2ccc(O)cc2)NC(=O)[C@H](CCCNC(=N)N)NC(=O)[C@H](CCCNC(=N)N)NC(=O)[C@@H]2CCCN2C(=O)[C@H]2CCCN2C(=O)[C@@H](CCCNC(=N)N)NC(=O)[C@H](Cc2ccc3ccccc3c2)NC(=O)[C@H](Cc2ccccc2)NC(=O)[C@H](CC(N)=O)NC1=O [BH24, cyclo[F-Φ-r-p-P-R-R-Y-V-N)] (cyclo(YVNF[2Nal][dR][dP]PRR))
Binding to the Grb2 SH2 domain (in words) (Grb2 SH2 domain; competition with fluorescently labeled reporter ligand): no detectable binding; also recorded: inability to compete
Phosphorylation of MEK [2]: did not decrease and not

Compound: cyclo(F-Φ-R-R-R-R-Q)-miniPEG-K(NF) (cyclo(F[2Nal]RRRRQ); not fully specified (residue 7); printed as cyclo(F-Φ-R-R-R-R-Q)-miniPEG-K(NF)) [CPP1, reference compound]
Cellular Uptake (MFINF, %) (HeLa cells; 5 μM NF-labeled peptide, 2 h, relative to CPP1 (100%)): 100%
Cellular Uptake (MFI^NF, %) of Keap1-Nrf2 inhibitors (HeLa cells; NF-labeled peptide, relative to CPP1 (100%)): 100%
Efficiency of entry into cytoplasm and nucleus, fold higher than nonaarginine (R9) (mammalian cells): 2-5 fold

IC50 (Keap1-Nrf2 interaction): ~160 nM
Compound: CC(C)C[C@@H]1NC(=O)[C@H](Cc2ccccc2)NC(=O)[C@H](CCCNC(=N)N)NC(=O)[C@H](CCCNC(=N)N)NC(=O)[C@@H]2CCCN2C(=O)[C@H]2CCCN2C(=O)[C@@H](CCCNC(=N)N)NC(=O)[C@H](Cc2ccc3ccccc3c2)NC(=O)[C@H](Cc2ccccc2)NC(=O)[C@H](Cc2ccccc2)NC(=O)[C@H](CCC(=O)O)NC(=O)CNC(=O)[C@H]([C@@H](C)O)NC(=O)[C@H](CCC(=O)O)NC(=O)[C@@H]2CCCN2C(=O)[C@H](CC(=O)O)NC1=O [BH15, cyclo(F-F-Φ-r-p-P-R-R-F-L-D-P-E-T-G-E)]
HO-1 level, dose response ([1]; varying doses): dose-dependently increased
Nrf2 levels in cytosolic and nuclear fractions [3]: dose-dependently increased

Decrease of affinity for Keap1 / inhibition potency (Keap1-Nrf2 interaction; Asn-Ala analogues vs Asp-Pro parents (BH13, BH15, BH17), BH19: truncation of cargo to 6-aa): 34 fold
Compound: C[C@@H]1NC(=O)[C@H](CC(N)=O)NC(=O)[C@H](Cc2ccccc2)NC(=O)[C@H](CCCNC(=N)N)NC(=O)[C@H](CCCNC(=N)N)NC(=O)[C@@H]2CCCN2C(=O)[C@H]2CCCN2C(=O)[C@@H](CCCNC(=N)N)NC(=O)[C@H](Cc2ccc3ccccc3c2)NC(=O)[C@H](Cc2ccccc2)NC(=O)[C@H](CCC(=O)O)NC(=O)CNC(=O)[C@H]([C@@H](C)O)NC(=O)[C@H](CCC(=O)O)NC1=O [BH19, cyclo(F-Φ-r-p-P-R-R-F-N-A-E-T-G-E)] (cyclo(F[2Nal][dR][dP]PRRFNAETGE))

IC50 (Keap1-Nrf2 interaction): ~160 nM
Compound: CC(C)C[C@@H]1NC(=O)[C@H](CCC(N)=O)NC(=O)[C@H](Cc2ccccc2)NC(=O)[C@H](CCCNC(=N)N)NC(=O)[C@H](CCCNC(=N)N)NC(=O)[C@@H]2CCCN2C(=O)[C@H]2CCCN2C(=O)[C@@H](CCCNC(=N)N)NC(=O)[C@H](Cc2ccc3ccccc3c2)NC(=O)[C@H](Cc2ccccc2)NC(=O)[C@H](Cc2ccccc2)NC(=O)[C@H](CCC(=O)O)NC(=O)CNC(=O)[C@H]([C@@H](C)O)NC(=O)[C@H](CCC(=O)O)NC(=O)[C@@H]2CCCN2C(=O)[C@H](CC(=O)O)NC1=O [BH13, cyclo(F-F-Φ-r-p-P-R-R-F-Q-L-D-P-E-T-G-E)] (cyclo(FF[2Nal][dR][dP]PRRFQLDPETGE))

Compound: nonaarginine (RRRRRRRRR) [Peptide R9]
Cytosolic delivery efficiency (ratio of cytosolic over extracellular cargo concentrations) [4]: 4.4%

Compound: CC(C)[C@@H]1NC(=O)[C@H](Cc2ccc(OP(=O)(O)O)cc2)NC(=O)[C@H](CCCNC(=N)N)NC(=O)[C@H](CCCNC(=N)N)NC(=O)[C@@H]2CCCN2C(=O)[C@H]2CCCN2C(=O)[C@@H](C)NC(=O)[C@H](C)NC(=O)[C@H](Cc2ccccc2)NC(=O)[C@H](CC(N)=O)NC1=O [BH25, cyclo[F-A-a-p-P-R-R-pY-V-N)] (cyclo([pY]VNFA[dA][dP]PRR))
Cellular entry / delivery efficiency (in words) (HeLa cells): poor cellular uptake
Phosphorylation of MEK [2]: did not decrease and not
